From US20070049518A1, “Novel method of treatment of inflammatory skin conditions” (priority 2005, published 2007)

Assays:
[1] = molecular target: T1, recombinant human cathepsin D (Homo sapiens, UniProt P07339); assay: Selectivity profile, cathepsin D; type: biochemical; settings: read-out: inhibition at 0.1 mM, Cathepsin D
T1 construct: recombinant human cathepsin D (R&D Systems Inc); purchased R&D Systems Inc
Experimental: (§1) Inhibitory activity was tested in reaction mixtures (0.1 ml) containing 2% (v/v) DMSO vehicle±compound plus additions as follows. V8 protease: 90 mM MOPS (sodium) buffer pH 7.0, […] calcium chloride, 0.045% Brij 35, 10 μM Mca-Leu-Glu-Val-Asp-Gly-Trp-Lys(Dnp)-amide (Bachem) and V8 (BioCentrum Ltd; 30 ng). Staphopain A and B: 90 mM MOPS (sodium) buffer pH 7.0, 1.8 mM cysteine-HCl (pH-adjusted with NaOH), 0.045% Brij 35, 0.1 mM Z-Phe-Arg-AMC hydrochloride (Bachem) and staphopain A or B (BioCentrum Ltd; 30 ng). Human kallikrein 5: 0.1M sodium phosphate buffer pH 8.0, 0.045% Brij 35, 0.1 mM Boc-Val-Pro-Arg-AMC (Sigma) and recombinant human kallikrein 5 (R&D Systems Inc; 6 ng). Human kallikrein 7: 72 mM Tris-HCl pH 8.0, 0.033% Brij 35, 1.2 mM S-2586 (Chromogenix Instrumentation Laboratory SpA) and recombinant human kallikrein 7 (R&D Systems Inc; 0.6 μg) that had been thermolysin-activated according to the manufacturer's instructions. Human angiotensin-converting enzyme (ACE): 45 mM MES (sodium) buffer pH 6.5, 0.045% Brij 35, 10 μM Mca-[…]Dnp)-OH(R&D Systems Inc) and recombinant human ACE (R&D Systems Inc; 1.3 ng). Human cathepsin D: 0.1M sodium acetate buffer pH 3.5, 0.2M sodium chloride, 0.045% Brij 35, 10 μM Mca-Pro-Leu-Gly-Leu-Dap(Dnp)-Ala-Arg-amide (Bachem) and recombinant human cathepsin D (R&D Systems Inc; 8 ng) activated according to the manufacturer's instructions. […]

[2] = molecular target: T2, recombinant human kallikrein 7 (Homo sapiens, UniProt P49862); assay: Selectivity profile, kallikrein 7; type: biochemical; settings: read-out: inhibition at 0.1 mM, Kallikrein 7
T2 construct: purchased R&D Systems Inc
T2 sequence (P49862 30-253): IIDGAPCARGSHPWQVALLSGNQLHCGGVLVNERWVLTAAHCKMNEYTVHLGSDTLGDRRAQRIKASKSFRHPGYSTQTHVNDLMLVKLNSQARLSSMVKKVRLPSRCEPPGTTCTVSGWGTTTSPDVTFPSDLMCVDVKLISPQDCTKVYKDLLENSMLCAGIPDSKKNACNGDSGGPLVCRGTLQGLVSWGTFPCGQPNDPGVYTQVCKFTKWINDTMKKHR
Experimental: as §1

T1 sequence (P07339 65-412): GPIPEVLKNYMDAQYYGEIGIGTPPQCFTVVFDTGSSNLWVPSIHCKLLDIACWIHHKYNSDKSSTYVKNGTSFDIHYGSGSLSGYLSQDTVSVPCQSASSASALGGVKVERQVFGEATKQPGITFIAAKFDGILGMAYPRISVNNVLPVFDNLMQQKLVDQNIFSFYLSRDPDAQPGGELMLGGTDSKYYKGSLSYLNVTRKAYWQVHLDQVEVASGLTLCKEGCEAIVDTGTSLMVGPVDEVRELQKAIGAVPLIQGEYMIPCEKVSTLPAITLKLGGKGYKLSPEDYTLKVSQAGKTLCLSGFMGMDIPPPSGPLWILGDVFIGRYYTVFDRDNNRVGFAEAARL

For `CNC(=O)[C@@H](NC(=O)[C@H](CC(=O)NO)CC(C)C)C(C)(C)C` [Compound 12, (S)—N1-((S)-3,3-dimethyl-1-(methylamino)-1-oxobutan-2-yl)-N4-hydroxy-2-isobutylsuccinamide], the inhibition at 100 µM [1] was 1% and the inhibition at 100 µM [2] was 0%.
